These results are taken from patent US20260240820A1, “METHOD FOR CONTROLLING MEMBRANE POTENTIAL-DEPENDENT ION CHANNEL THROUGH TYPE I TASTE RECEPTORS (T1RS)” (ION CHAT RESEARCH CORPORATE, priority 2022, published 2026).

The test system of data set [1] is SH-SY5Y cells. Briefly: Cell morphology observation, SH-SY5Y cells. Conditions: neuron-like differentiated SH-SY5Y cells. It counts as cell-based, human.
The subject of the next data set is Nav1.5. Nature of the data set: Patch-clamp (voltage clamp) recording of VGSC current in HEK cells stably expressing Nav1.5. The following applies: for Effect on VGSC current enhanced by Aβ42/40 (AD-D): applied after Aβ42/40 (AD-D). For orientation: Patch clamp records ionic current or voltage across a cell membrane.
For another data set, the system named is VGSC of NG108-15 cells. Nature of the data set: Whole-cell patch-clamp of VGSC current in differentiated NG108-15 cells. It counts as cell-based, mouse/rat. Conditions: subsequent application. The source says: Specifically, we used mouse/rat hybridoma cells NG108-15 differentiated into neuronal-like cells using forskolin and low-concentration FBS treatment, along with human-derived cells expressing human Nav1.5. We recorded VGSC currents using the whole-cell patch-clamp method and observed the effects of Aβ peptides (FIG. 58A-1, B). The term “Aβ peptides” here refers to a mixture of Aβ40 and Aβ42. We used two types of mixtures similar to those used in the experiments on cell morphology and lamellipodia dynamics. One mixture corresponds to the Aβ42/40 ratio observed in cerebrospinal fluid from healthy individuals (NDC: non-demented control), and the other corresponds to the ratio observed in cerebrospinal fluid from Alzheimer's disease patients with cognitive impairment (AD-D).

The subject of a further data set is HEK cells. Briefly: Cell morphology observation (bright-field), HEK cells. It counts as cell-based, human. The source says:
(§1) In a previous implementation example (FIG. 54), it was shown that Aβ peptides and artificial sweeteners cause depolymerization of the cytoskeleton. […] To easily compare and confirm the morphological changes before and after the application of Aβ1-40, the areas of interest were circled with dashed lines. Observations were made using bright-field microscopy. Images were captured with a camera (UI-3880CP-M) from IDS mounted on the microscope, and the images were imported to a PC using the software that came with the camera. Further image processing was done using ImageJ (Rasband, 1997-2018).
The solution (HHBS*) was adjusted to achieve the final concentration values shown in Table 11 for Aβ42/40, and the changes in cell morphology were observed. Indicators included cell body contraction, extension, or the presence of lamellipodia ruffling around the cell periphery.

In data set [2] the test system is endogenous T1R GPCR of HEK cells. Nature of the data set: Intracellular calcium (Cal-520) in HEK cells stably expressing Nav1.1 with endogenous T1R GPCR. The format is cell-based, human. The following applies: 10 nM then 20 nM for Aβ1-40 and Aβ1-42. How it is done: Specifically, experiments were conducted as follows using HEK cells stably expressing Nav1.1 (FIG. 45). The calcium-sensitive reagent (Cal-520, AAT Bioquest) was incubated at 37° C. for 60 minutes, followed by incubation at room temperature for 30 minutes, and then changes in intracellular calcium were measured using a fluorescence microscope. […] Initially, 10 nM, followed by 20 nM of Aβ1-40 was applied after 5 minutes (arrow). […] A total of 6 cell groups from two independent experiments were measured, averaged by the maximum fluorescence response value, and the mean and standard error (stderr) were calculated and plotted. […] 10 nM, followed by 20 nM of Aβ1-42 was applied after 5 minutes (arrow). […] A total of 12 cell groups from two independent experiments were measured, averaged by the minimum fluorescence response value, and the mean and standard error (stderr) were calculated and plotted. Similar to the experimental results using the patch-clamp method when Aβ peptide was applied to Nav1.5, it was confirmed from intracellular calcium measurements that the effects of Aβ1-40 and Aβ1-42 were different.
A general note: Calcium assays in cells follow changes in intracellular calcium, usually with a dye or a luminescent sensor.

In the next data set the test system is Nav1.1. Nature of the data set: Patch-clamp recording of VGSC current in HEK (Nav1.1) cells. The format is cell-based, human. From the text:
The cells used in the previous (18-1) experiment were cardiac-type VGSC cells. In this experiment, HEK (Nav1.1) and HEK (Nav1.6) cells, which are considered neuronal VGSC cells, were created. The effects of four peptides—Aβ25-35, Aβ1-38, Aβ1-40, and Aβ1-42—were examined using the same experimental protocol as in (18-1).

The next data set concerns HUEhT-1 cells. Nature of the data set: Cell morphology observation, HUEhT-1 umbilical vein endothelial cells. It counts as cell-based, human. The following applies: Aβ1-40 at 12.5 nM.
From the text: as §1

Another data set concerns Nav1.6. Nature of the data set: Patch-clamp recording of VGSC current in HEK (Nav1.6) cells. The format is cell-based, human. From the text:
The cells used in the previous (18-1) experiment were cardiac-type VGSC cells. In this experiment, HEK (Nav1.1) and HEK (Nav1.6) cells, which are considered neuronal VGSC cells, were created. The effects of four peptides—Aβ25-35, Aβ1-38, Aβ1-40, and Aβ1-42—were examined using the same experimental protocol as in (18-1). […]

Data set [3] deals with Nav1.5 in T1R3-silenced HEK cells. Nature of the data set: VGSC current in HEK Nav1.5 cells with silenced T1R3. It counts as cell-based, human. The following applies: for Effect on VGSC current: 20 μM (b565). The method, boiled down: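 VGSC currents were recorded in HEK-Nav1.5 cells with T1R3 knocked down by a miRNA expression vector, stimulated every 8 s. The effect of Aβ25-35 peptide was compared with control HEK-Nav1.5 cells.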

Data set [4] has as its system T1R3 inherent in HEK cells. Nature of the data set: Impedance of HEK Nav1.5 cell sheet. The format is cell-based, human. How it is done: Specifically, cells were cultured on a conductive glass (FTO glass, thickness 2.2 mm) electrode plate to form a sheet, and the change in impedance value of the cell sheet was measured by applying current stimulation between the conductive glass covered with cells and the extracellular solution. The measurement experiment was conducted using the voltage-clamp method. A voltage pulse of 1 mV (1 Hz, 220 ms width) was applied between the silver chloride electrode placed in the extracellular solution and the electrode plate, and the change caused by the amyloid peptide was measured as a change in current (I).
By measuring the current response (I) occurring there, the resistance ® of the entire cell sheet to the applied voltage (1 mV) can be calculated from Ohm's law (V=IR>R=V/I). As shown in (FIG. 46), it was confirmed that the T1R3 antibody inhibits the effect of Aβ1-40 peptide.

The subject of data set [5] is VGSC of SH-SY5Y cells (Nav1.7, Nav1.2, Nav1.3). Nature of the data set: Patch-clamp recording of VGSC current in differentiated SH-SY5Y cells. It counts as cell-based, human. Conditions: 5 μM. From the text: Furthermore, the inventors focused on the relationship between taste receptors, particularly the sweet or umami receptors containing the T1R3 subunit, which are widely expressed in the brain and nervous system, including the hippocampus and cortex. They used human neuroblastoma cells (SH-SY5Y) that functionally express Nav1.2, Nav1.3, and Nav1.7 (as reported in non-patent literature 8), as well as HEK cells stably expressing Nav1.5 (with endogenous expression of T1R1, T1R2, and T1R3). They observed the effects of taste stimuli on sodium channel activation. By reducing the expression of T1R1 and T1R3 genes using silencing vectors, they confirmed that the effects on sodium channel currents induced by taste stimuli act through taste receptor GPCRs.
The SH-SY5Y cell culture medium was prepared by mixing DMEM (Sigma-Aldrich) and F-12 (Sigma-Aldrich) in equal proportions. To induce neuronal-like differentiation, the medium contained 1% FBS (BioWest), 5% 40 mM L-Glutamine (Fuji Film), and 1% MEM non-essential amino acids (Wako Pure Chemical Industries). During differentiation, SH-SY5Y cells were cultured for at least 5 days with the addition of 10 μM/ml retinoic acid (Fuji Film). In this document, “SH-SY5Y cells” refer to the SH-SY5Y cell line differentiated into neuronal-like cells.

A further data set has as its system VGSC. Nature of the data set: Patch-clamp recording of VGSC current, cell type not specified or several cell types (summary statements). It counts as cell-based, human.
Data set [6] relates to voltage-dependent potassium channel current of SH-SY5Y cells. Nature of the data set: Voltage clamp recording of outward potassium current in SH-SY5Y cells. It counts as cell-based, human. The following applies: 5 μM. From the text: The inward current represents the transient peak observed immediately after stimulation, while the outward current measures the average value during the last 50 ms of rectangular pulse stimulation.

Data set [7] has as its system SH-SY5Y cells. Briefly: Action potentials of differentiated SH-SY5Y cells (current clamp, NanoCharge method). It counts as cell-based, human. Conditions: pH6; current clamp. The procedure: Next, using the current-clamp mode, we applied current stimulation and recorded action potentials from differentiated SH-SY5Y cells (FIG. 5, from the lower to the upper part of the figure, rectangular wave current stimulation was applied. The current strengths were 6, 8, 10, and 12 pA from the bottom). Before the application of Aβ25-35 peptide, action potentials were not induced at stimulation currents of 6 pA and 8 pA, but action potentials were recorded at stronger stimulation currents (10 pA and 12 pA).
By using magnetic conductive nanoparticles as intracellular electrodes for measuring the neuronal action potentials of differentiated SH-SY5Y cells, and combining this with a capacitive potential detection device to measure changes in intracellular potentials, the spontaneous action potentials of these cells were measured. Specifically, 6.25 nM of the T1R3 agonist Aβ25-35 peptide was added to 400 μl of SH-SY5Y cell culture medium, and the spontaneous action potentials before and after the addition of Aβ25-35 peptide were measured to observe the changes.
This membrane potential recording method focuses on the magnetic conductive nanoparticles penetrating the cell membrane, the cover glass on which the cells are seeded, and the electrode placed below the cover glass forming a capacitor. The charge (Q) charged to this capacitor is recorded as the membrane potential in terms of charge rather than voltage changes. Since the charge (Q) is obtained from Q=CV, where C is the capacitance and V is the potential, the charge changes measured here are influenced by the capacitor (C) (FIG. 43).

For data set [8] the following is noted: when used for treatment of hypercalcemia; cited from earlier work.
The test system of a further data set is HEK Nav1.5 cells. Nature of the data set: GFP-Tubulin / GFP-Actin cytoskeleton observation in HEK Nav1.5 cells. The format is cell-based, human. The source says:
To observe the impact of cinacalcet and Aβ1-42 peptide on microfilament (actin) fiber structures, we labeled cells with GFP-Actin (FIG. 34). […] This experimental approach, using GFP-Tubulin, GFP-Actin, or other fluorescent proteins to label microtubules and microfilaments, can be used to screen compounds that regulate the activity of ion channels and neuronal function-controlling proteins. Additionally, simultaneous labeling of tubulin and actin can be achieved using fluorescent antibodies or phalloidin after cell fixation.

Entries after “also recorded” stand apart in the source; their conditions may differ. Where two headings read alike, the source gives them in different places.

On to `NCCC(=O)O` [β-alanine], for which, in the data set with SH-SY5Y cells [1], the Lamellipodia activity result is on record as “enhances lamellipodia activity”. Also, the “Effect on VGSC current enhanced by Aβ42/40 (AD-D)” value was “reversed; also recorded: reverse the enhancement of VGSC current; also recorded: nearly returned to the control level” with Nav1.5 and “nearly restoring it to control levels” in the data set on Nav1.5 (listed as D-alanine). The “Effect on VGSC current after Aβ42/40 (AD-D)” value in the data set on VGSC of NG108-15 cells is “did not cause any further changes”. Also, the “Effect on cell motility” value in the data set on HEK cells (5 μM) was “promotes cell motility”. In the data set with HEK cells (HEK cells, data not shown), the “Effect on cells contracted and inactive due to Aβ AD” value was “induces activity in cells”.
On to “Aβ1-40: amyloid β peptide, Sequence No. 3”, for which, in [2], the “Change in intracellular calcium” value is reported as “increased intracellular calcium levels; also recorded: continued to slowly increase”. The “Effect on VGSC current” value with Nav1.1 and in the data set on Nav1.6 was “VGSC enhancement” in each case. For the same molecule, the “Change in cell morphology” value in the data set with HUEhT-1 cells was “a decrease in cell area/volume”; with HUEhT-1 cells (listed as Aβ40), “significant cell body contraction (atrophy)”; in the data set with HEK cells (Aβ1-40 at 12.5 nM), “a decrease in cell area/volume”. In addition, in the data set with Nav1.5, the “Effect on VGSC current amplitude” value is given as “reduced VGSC currents for both prepulse potentials”. Besides, the “Shift of steady-state inactivation (S-S) curve of VGSC” value with Nav1.5 is given as “to the left; also recorded: more towards the hyperpolarizing direction”. Also, the “Effect on VGSC in T1R3-silenced cells” value in [3] was “is lost”. Also, in data set [4], the “Change of impedance of cell sheet” value is recorded as “decrease in impedance”.
`C[C@@H](NCCCc1cccc(C(F)(F)F)c1)c1cccc2ccccc12` [Cinacalcet]: the results for the “Effect on inward VGSC current” value in data set [5] and in data set [5] (listed as cinacalcet) were “inhibited” and “complete inhibition of both currents”, respectively. Moreover, the entries for the “Effects on VGSCs” value in the data set on VGSC and in the data set with VGSC (listed as cinacalcet) were “Inhibition of VGSCs” and “inhibited human VGSC”, respectively. For the same molecule, the “Effect on VGSC activity” value in the data set on VGSC (5 μM) is “completely inhibits VGSC activity”. In addition, the “Inhibitory effect on VGSC when tubulin polymerization is inhibited by Colchicine” value in the data set with VGSC (Colchicine treated cells) was “still inhibited VGSC currents”. Also, the “Inhibitory effect on VGSC when actin polymerization is inhibited by Cytochalasin D” value with VGSC (Cytochalasin D treated cells) is “inhibited by cytochalasin D treatment”. Also, in the data set with VGSC (HEK Nav1.5 and SH-SY5Y), the “Required concentration for VGSC inhibition” value is 5 µM. In addition, the entries for the “Effect on outward potassium current” value in data set [6] and in data set [6] (listed as cinacalcet) were “inhibited” and “complete inhibition of both currents”, respectively. Moreover, in the data set with Nav1.5 (5 μM, pH 6), the “Effect on VGSC (Na+) current under acidic conditions” value is listed as “gradually inhibited; also recorded: exhibited VGSC inhibition”. Further, in the data set on Nav1.5 (20 μM, control HEK Nav1.5 cells), the “Effect on VGSC currents” value is given as “completely inhibits VGSC currents”. The “Effect on leak (baseline) current” value in the data set on Nav1.5 (when VGSC inhibition nearly complete) was “reduced leak currents”. Moreover, the “Effect on VGSC current” value in data set [3] is “no change in VGSC current was observed”; in [3] (listed as cinacalcet), “no observable effect”. The “Effect on VGSC in T1R3-silenced cells” value in data set [3] (listed as cinacalcet) was “no VGSC inhibitory effect was observed; also recorded: T1R3 silencing nullifies ab25-35's”. Further, the “Effect on VGSC-dependent action potentials under acidic conditions” value in the data set with SH-SY5Y cells [7] is “inhibited VGSC-dependent action potentials”. In addition, in data set [8], the Plasma concentration is 50 nM. For the same molecule, the “Microfilament structure (GFP-Actin)” value in the data set on HEK Nav1.5 cells is recorded as “condensed GFP-Actin structures”.
